Test results published in patent publication EP1762239A1, “Lofexidine for intraspinal administration” (Texcontor Etablissement, priority 2005, dated 2007).
“And” between values parts separate entries of the source, which are not always exact repeats. Equal values may be shown once. Where a name gives a salt, the structure may show the parent alone. Marks after values point to notes of the source that are not given here.

Key:
[1] = systemically (e.g. orally or by intravenous injection), especially at high doses (e.g. >600 µg per day); cited from earlier work
[2] = given orally; dosages of up to 1200 µg per day; Human Reproduction, Vol. 16, No. 8, 2001; cited from earlier work
[3] = tested on: rat model of post-operative pain; assay: Rat model of post-operative pain (plantar incision), tactile allodynia by electronic von Frey; format: in vivo, Wistar rats; conditions: for Tactile Pressure (g) Post-treatment 15min. / Tactile Pressure (g) Post-treatment 30min. / Tactile Pressure (g) Post-treatment 60min. / Tactile Pressure (g) Post-treatment 120 min.: 24 hours after surgery, single readings at 4 points per rat; for Tactile Pressure (g) Post-treatment 15min. Ave. / Tactile Pressure (g) Post-treatment 30min. Ave. / Tactile Pressure (g) Post-treatment 60min. Ave. / Tactile Pressure (g) Post-treatment 120 min. Ave.: average of 4 points; for Tactile Pressure (g) Post-treatment 15min. Mean / Tactile Pressure (g) Post-treatment 30min. Mean / Tactile Pressure (g) Post-treatment 60min. Mean / Tactile Pressure (g) Post-treatment 120 min. Mean: group mean of 5 rats; for Δ Treatment 15min. / Δ Treatment 30min. / Δ Treatment 60min. / Δ Treatment 120 min.: (Post-Treatment) - (Pre-Treatment)
Experimental: Lofexidine at 0.00032 and 0.0032 mg/rat injected intrathecally (ITH) was evaluated for possible analgesic activity in a rat model of post-operative pain which was induced with an incision made on the plantar surface of the hind paw. To measure tactile allodynia, a supertip with a flattened surface connected to Electrovonfrey Aesthethiometer (IITC, USA) was applied slowly and gently onto the plantar surface of the hind paw, where 4 points around the incision were identified. The endpoint is the mean withdrawal threshold values (gm) in response to von Frey filament, serving as a measure of analgesic activity. Percent inhibition was calculated as Δ treatment values (change in threshold pressure caused by treatment) relative to Δ blank values (change in threshold value caused by incision). Lofexidine.HCl was dissolved in 0.9% NaCl and at doses of 0.00032 and 0.0032 mg/rat was administered intrathecally (ITH). The dosing volume was 10 µl/rat. Male Wistar derived rats weighing 270 ± 30 g provided by BioLasco Taiwan (under Charles River Laboratories Technology licensee) were used. Space allocation for animals was 45 x 23 x 15 cm for 6 rats. Animals were housed in APEC^R cages. All animals were maintained in a controlled temperature (22-24°C) and humidity (60%-80%) environment with 12 hours light dark cycles for at least one week in MDS Pharma Services-Taiwan Laboratory prior to use. Free access to standard lab chow (Lab Diet, Rodent Diet, PMI Nutrition International, USA) and tap water was granted. All aspects of this work including housing, experimentation and disposal of animals were performed in general accordance with the Guide for the Care and Use of Laboratory Animals (National Academy Press, Washington, D. C, 1996). Groups of 5 male Wistar rats weighing 270 ± 30 g were used. Prior to surgery, individual animals were acclimatised to the testing environment and baseline responses to Electronic Von Frey Aesthesiometer (2290CE Electrovonfrey®, IITC, USA) with a rigid tip were performed (Pre-Incision). Under pentobarbital (50 mg/kg, 5 ml/kg, i.p.) anesthesia, the left hind paw was aseptically prepared. A 1-cm longitudinal incision was made with a number 11 blade, through the skin and fascia of the plantar aspect of the foot, starting 0.5 cm from the proximal edge of the heel and extending toward the toes. The plantaris muscle was elevated and incised longitudinally, followed by crushing with a mosquito hemostat for 20 seconds. The muscle origin and insertion remained intact After hemostasis with gentle pressure, the skin and fascia were then closed as one layer using 4-0 silk suture. Evaluation for pain was performed at 24 hours postoperatively between 08:00 and 16:00h. Each animal was monitored at 15, 30, 60 and 120 minutes after intrathecal administration of lofexidine.HCl. The rats were placed under inverted plexiglas cages on a wire mesh rack and a brief observation of general behavior post-injection was made. The rigid tip part of the Electronic Von Frey Aesthesiometer was applied perpendicularly from underneath the mesh floor to the four points around the wound surface of the animal with slow upward force against the paw. A positive response to tactile pressure was recorded if the paw was sharply withdrawn; ambulation was considered an ambiguous response, and in such cases, the stimulus was reapplied. Mean values from 4 points for each rat and from 5 rats in each group were calculated. Percent inhibition due to treatment relative to pre-treatment pain response was calculated according to the formula: Tactile Pressure [(Post-Treatment) - (Pre-Treatment)]/[(Pre-Incision) - (Pre-Treatment)] x 100%. Inhibition by 50% or more (≥50%) is considered significant analgesic effect. Unpaired Student's t test is applied for comparison of the % inhibition values between test substance-and vehicle-treated groups. Significance is considered at P<0.05 level

[4] = 0.00032 mg/rat ITH, individual rat
[5] = 0.00032 mg/rat ITH, group, Δ Treatment/Δ Blank x 100%
[6] = 0.00032 mg/rat ITH, group, Δ Blank 30.2
[7] = 0.0032 mg/rat ITH, individual rat
[8] = 0.0032 mg/rat ITH, group, Δ Treatment/Δ Blank x 100%, ≥50% considered significant
[9] = 0.0032 mg/rat ITH, group, Δ Blank 32.9

Structure (SMILES): CC(Oc1c(Cl)cccc1Cl)C1=NCCN1 (stereo not shown) [Lofexidine HCl]
- common symptoms associated with use [1]: drowsiness, sedation and blood pressure and heart rate increases
- effectiveness for treatment of chronic pelvic pain [2]: not effective
- analgesic effect ([3]; 0.00032 mg/rat ITH): slight analgesic effect
- Tactile Pressure (g) Post-treatment 15min. ([3]; 0.00032 mg/rat ITH): 26.6 g and 26.9 g and 28.6 g and 23.1 g (2×) and 21.6 g and 17.6 g and 23.3 g and 15.5 g and 18.4 g and 21.1 g and 19.3 g and 23.6 g and 20.5 g and 24.6 g and 20.1 g and 17.9 g and 19.2 g and 14.4 g and 20.6 g
- Tactile Pressure (g) Post-treatment 30min. ([3]; 0.00032 mg/rat ITH): 25.9 g and 23.6 g and 32.5 g and 18.6 g and 25.7 g and 28.4 g and 26.0 g and 20.6 g and 22.3 g and 20.4 g and 17.3 g and 24.6 g and 21.6 g and 22.5 g and 24.4 g and 24.3 g and 20.0 g and 19.4 g and 18.2 g and 19.2 g
- Tactile Pressure (g) Post-treatment 60min. ([3]; 0.00032 mg/rat ITH): 23.3 g and 27.3 g and 23.6 g and 26.6 g and 22.9 g and 19.7 g (2×) and 24.4 g and 19.2 g and 19.9 g and 20.3 g and 22.6 g and 18.4 g and 25.1 g and 21.2 g and 22.0 g and 16.2 g and 21.1 g and 20.5 g and 21.6 g
- Tactile Pressure (g) Post-treatment 120 min. ([3]; 0.00032 mg/rat ITH): 20.6 g (3×) and 21.0 g (2×) and 17.2 g and 19.9 g (2×) and 24.3 g and 21.2 g and 18.9 g and 21.6 g and 22.0 g and 18.0 g and 20.3 g and 22.4 g (2×) and 23.9 g and 18.6 g and 16.8 g
- Tactile Pressure (g) Post-treatment 15min. Ave. [3, 4]: 26.3 g and 21.4 g and 18.6 g and 22.2 g and 18.0 g
- Tactile Pressure (g) Post-treatment 30min. Ave. [3, 4]: 25.2 g (2×) and 21.2 g and 23.2 g and 19.2 g
- Tactile Pressure (g) Post-treatment 60min. Ave. [3, 4]: 25.2 g and 21.6 g and 20.3 g and 22.0 g and 19.9 g
- Tactile Pressure (g) Post-treatment 120 min. Ave. [3, 4]: 19.7 g and 21.4 g and 21.2 g (2×) and 19.4 g
- Tactile Pressure (g) Post-treatment 15min. Mean ([3]; 0.00032 mg/rat ITH): 21.3 g
- Tactile Pressure (g) Post-treatment 30min. Mean ([3]; 0.00032 mg/rat ITH): 22.8* g
- Tactile Pressure (g) Post-treatment 60min. Mean ([3]; 0.00032 mg/rat ITH): 21.8 g
- Tactile Pressure (g) Post-treatment 120 min. Mean ([3]; 0.00032 mg/rat ITH): 20.6 g
- %Inh 15min. [3, 5]: 2.6%
- %Inh 30min. [3, 5]: 7.6%
- %Inh 60min. [3, 5]: 4.3%
- %Inh 120 min. [3, 5]: 0.3%
- Δ Treatment 15min. [3, 6]: 0.8 g
- Δ Treatment 30min. [3, 6]: 2.3 g
- Δ Treatment 60min. [3, 6]: 1.3 g
- Δ Treatment 120 min. [3, 6]: 0.1 g
- %Inh 15min. [3, 4]: 14.9% and 2.5% and -5.6% and 8.0% and -7.4%
- %Inh 30min. [3, 4]: 11.1% and 12.8% and 4.1% and 11.4% and -3.2%
- %Inh 60min. [3, 4]: 11.1% and 3.0% and 0.8% and 7.4% and -0.7%
- %Inh 120 min. [3, 4]: -7.4% and 2.5% and 4.1% and 4.7% and -2.5%
- Tactile Pressure (g) Post-treatment 15min. ([3]; 0.0032 mg/rat ITH): 48.4 g and 47.2 g and 55.3 g and 30.4 g and 23.5 g and 48.7 g and 43.0 g and 36.2 g and 32.4 g and 33.8 g and 21.4 g and 31.9 g and 37.7 g and 42.5 g (2×) and 34.5 g and 30.5 g and 40.7 g and 60.0 g and 40.6 g
- Tactile Pressure (g) Post-treatment 30min. ([3]; 0.0032 mg/rat ITH): 36.4 g and 34.8 g and 44.1 g and 39.3 g and 34.1 g and 44.0 g and 38.1 g and 36.5 g and 36.8 g and 28.8 g and 30.3 g and 33.2 g and 34.5 g and 40.1 g and 37.2 g and 26.8 g and 27.7 g and 44.2 g and 54.3 g and 50.8 g
- Tactile Pressure (g) Post-treatment 60min. ([3]; 0.0032 mg/rat ITH): 33.6 g and 35.6 g and 35.5 g and 36.7 g and 29.0 g and 28.5 g and 40.6 g and 31.8 g and 16.1 g and 16.5 g and 21.8 g and 16.6 g and 24.3 g and 26.8 g and 21.3 g and 21.1 g and 31.3 g and 41.3 g and 32.5 g and 49.5 g
- Tactile Pressure (g) Post-treatment 120 min. ([3]; 0.0032 mg/rat ITH): 29.3 g and 21.6 g (2×) and 20.4 g and 19.2 g and 22.9 g and 22.1 g and 21.4 g and 14.5 g and 21.5 g and 17.6 g and 18.8 g and 16.2 g and 22.6 g and 24.7 g and 18.6 g and 31.1 g and 28.6 g and 27.9 g and 28.7 g
- Tactile Pressure (g) Post-treatment 15min. Ave. [3, 7]: 45.3 g and 37.9 g and 29.9 g and 36.3 g and 46.0 g
- Tactile Pressure (g) Post-treatment 30min. Ave. [3, 7]: 38.7 g and 38.2 g and 32.3 g and 34.7 g and 44.3 g
- Tactile Pressure (g) Post-treatment 60min. Ave. [3, 7]: 35.4 g and 32.5 g and 17.8 g and 23.4 g and 38.7 g
- Tactile Pressure (g) Post-treatment 120 min. Ave. [3, 7]: 22.6 g and 22.0 g and 18.1 g and 20.5 g and 29.1 g
- Tactile Pressure (g) Post-treatment 15min. Mean ([3]; 0.0032 mg/rat ITH): 39.1* g
- Tactile Pressure (g) Post-treatment 30min. Mean ([3]; 0.0032 mg/rat ITH): 37.6* g
- Tactile Pressure (g) Post-treatment 60min. Mean ([3]; 0.0032 mg/rat ITH): 29.6 g
- Tactile Pressure (g) Post-treatment 120 min. Mean ([3]; 0.0032 mg/rat ITH): 22.5 g
- %Inh. 15 min. [3, 8]: (55.9) %
- %Inh. 30min. [3, 8]: (51.4) %
- %Inh. 60min. [3, 8]: 27.1%
- %Inh. 120 min. [3, 8]: 5.5%
- Δ Treatment 15min. [3, 9]: 18.4 g
- Δ Treatment 30min. [3, 9]: 16.9 g
- Δ Treatment 60min. [3, 9]: 8.9 g
- Δ Treatment 120 min. [3, 9]: 1.8 g
- %Inh 15min. [3, 7]: 67.7% and 46.2% and 39.2% and 41.8% and 84.2%
- %Inh 30min. [3, 7]: 48.4% and 47.0% and 47.7% and 36.7% and 78.8%
- %Inh 60min. [3, 7]: 38.7% and 32.5% and -3.5% and 0.9% and 60.8%
- %Inh 120 min. [3, 7]: 1.2% and 5.8% and -2.5% and -8.2% and 29.9%
- analgesic effect against post-operative pain ([3]; 0.0032 mg/rat intrathecal, at 15 and 30 minute time points, compared with Δ blank values): demonstrated analgesic effect
